US8778985B2, “Inhibiting amyloid-beta peptide/rage interaction at the blood-brain barrier” (The University of Rochester, priority 2006, dated 2014)

Columns and labels:
RAGE = target: T1, RAGE (Homo sapiens, UniProt Q15109); assay: 125I-Aβ40 specific binding on RAGE-transfected CHO cells at 4° C., competitive inhibition
T1 construct: expressed in transfected cells; host or cells: Chinese hamster ovary (CHO) cells
Description: Data are mean±s.e.m., n=3 per group.
All three are tertiary amides substituted with a large, hydrophobic hydrocarbon moiety and a monosubstituted aromatic moiety. Linkage to the monosubstituted aromatic is either direct (FPS2) or via an alkyl (FPS1) or heteroaromatic (FPS3) spacer. Two of the compounds also feature a highly electron-poor substituted benzene ring (3-nitro, 4-chloro for FPS1; 3,5-dinitro for FPS2).

APPsw+/− mice = assay: Thioflavin S-positive amyloid load in brain, chronic treatment of APPsw+/− mice; assay type: in vivo; conditions: 1 mg/kg per day i.p. for two months
Protocol: Amyloid load hippocampus and cortex of APPsw^+/− mice treated with vehicle (open bars) or FPS2 (closed bars). FPS2 (1 mg/kg per day), was administered intraperitoneally to mice for two months beginning at the age of 8 months. Values are means±s.e.m, n=5-6 per group.
In the chronic-treated mice, Aβ40 and Aβ42 levels in the hippocampus were reduced by about 85% and 90%, respectively, in the FPS2-treated mice compared to vehicle (FIG. 6A). Similarly, Aβ40 and Aβ42 levels in the cortex were reduced by about 70% and 80%, respectively (FIG. 6B).
Compounds were synthesized in parallel using semiautomated chemical reactions. […] Purity was assessed by reverse-phase gradient HPLC. […] After two months of treatment, (i) the cerebral blood flow response to brain activation (whisker stimulation) was measured and (ii) behavioral tests including operant learning, novel object location (NOL), and novel object recognition (NOR) were performed. After these functional tests, the mice were sacrificed and their brains analyzed for Aβ40, Aβ42, and amyloid levels. • CBF response to brain activation. The CBF response to vibrissal stimulation in anesthetized APPsw^+/− mice was measured by using laser-doppler flowmetry (Transonic Systems, BLF 21 D). […] The time exploring the novel and familiar objects was scored by hand to provide discrimination. • Human Aβ40 and Aβ42. […]

T1 sequence (Q15109 23-404): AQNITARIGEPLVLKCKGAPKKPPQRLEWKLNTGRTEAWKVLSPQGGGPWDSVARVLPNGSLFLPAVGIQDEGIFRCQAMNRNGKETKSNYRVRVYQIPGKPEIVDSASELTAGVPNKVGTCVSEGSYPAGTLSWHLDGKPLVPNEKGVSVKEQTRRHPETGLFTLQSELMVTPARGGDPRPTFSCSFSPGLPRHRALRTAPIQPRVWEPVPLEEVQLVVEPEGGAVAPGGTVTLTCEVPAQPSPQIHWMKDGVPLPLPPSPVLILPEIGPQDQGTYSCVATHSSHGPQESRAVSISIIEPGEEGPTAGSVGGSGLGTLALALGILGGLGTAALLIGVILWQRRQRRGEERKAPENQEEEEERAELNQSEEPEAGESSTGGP

Compound: CC(CC(=O)NCCCN(C(=O)c1cc([N+](=O)[O-])cc([N+](=O)[O-])c1)c1ccccc1)CC(C)(C)C (stereo not shown) [FPS2, 3,5-dinitro-N-phenyl-N-[3-[(3,5,5-trimethyl-1-oxohexyl)amino]propyl]-(9Cl)-benzamide]
- Ki/Kd ratio (Ki compound's inhibitory constant, Kd Aβ-RAGE binding constant) (RAGE): 0.45
- inhibitory constant (Ki) of Aβ-RAGE binding (RAGE; competitive): low
- reduction of thioflavin-S positive areas (amyloid load) in the cortex compared to vehicle (APPsw+/− mice): about 85%
- reduction of thioflavin-S positive areas (amyloid load) in the hippocampus compared to vehicle (APPsw+/− mice): about 85%
